SMILES strings stand for the structures.

The experiment addresses T1, recombinant His-tag Y220C p53 DBD protein (Homo sapiens, UniProt P04637, Y220C).
T1 construct: recombinant His-tag Y220C p53 DBD protein (amino acids #˜94-312)
Put plainly: In vitro DNA binding activity assay (TR-FRET): binding of His-tag Y220C p53 DBD to biotin-labeled consensus DNA. The class given is biochemical. Particulars: SC150 = concentration to increase DNA binding by […], His-tag Y220C p53 DBD, biotin-labeled consensus DNA.
On to `CN1CC[C@@H](Nc2cccc3c2cc(-c2noc(CNC(=O)c4cccn4CCF)n2)n3CC(F)(F)F)[C@@H](F)C1` [Compound 540B, N-{[3-(4-{[(3S,4R)-3-fluoro-1-methylpiperidin-4-yl]amino}-1-(2,2,2-trifluoroethyl)-1H-indol-2-yl)-1,2,4-oxadiazol-5-yl]methyl}-1-(2-fluoroethyl)-1H-pyrrole-2-carboxamide], for which the “Y220C SC150 (μM)” value is given as “* (* = 0 μM ≤ SC150 < 0.1 μM)”.

As to `COc1cc(S(C)(=O)=O)ccc1NCc1cnc(-c2cc3c(N[C@@H]4CCN(C)C[C@@H]4F)cccc3n2CC(F)(F)F)s1` [Compound 99B, N-[(3S,4R)-3-fluoro-1-methylpiperidin-4-yl]-2-(5-{[(4-methanesulfonyl-2-methoxyphenyl)amino]methyl}-1,3-thiazol-2-yl)-1-(2,2,2-trifluoroethyl)-1H-indol-4-amine], the “Y220C SC150 (μM)” value is “* (* = 0 μM ≤ SC150 < 0.1 μM)”. In the case of `CN1CCC(Nc2cccc3c2cc(-c2nnc(CNC(=O)c4ccc5[nH]ncc5c4)s2)n3CC(F)(F)F)CC1` [Compound 55B, N-[(5-{4-[(1-methylpiperidin-4-yl)amino]-1-(2,2,2-trifluoroethyl)-1H-indol-2-yl}-1,3,4-thiadiazol-2-yl)methyl]-1H-indazole-5-carboxamide], the “Y220C SC150 (μM)” value is “** (** = 0.1 μM ≤ SC150 < 0.5 μM)”. Under `CC(C)(C)n1ccc(C(=O)NCc2nc(-c3cc4c(NC5CCn6ccnc6C5)cccc4n3CC(F)(F)F)no2)c1` (stereo not shown) [Compound 366B, 1-tert-butyl-N-({3-[4-({5H,6H, 7H,8H-imidazo[1,2-a]pyridin-7-yl}amino)-1-(2,2,2-trifluoroethyl)-1H-indol-2-yl]-1,2,4-oxadiazol-5-yl}methyl)-1H-pyrrole-3-carboxamide] stands “* (* = 0 μM ≤ SC150 < 0.1 μM)”; under `CN1CC[C@@H](Nc2cccc3c2cc(-c2noc(CNC(=O)c4ccn(C(C)(C)C5CC5)c4)n2)n3CC(F)(F)F)[C@@H](F)C1` [Compound 423B, 1-(2-cyclopropylpropan-2-yl)-N-{[3-(4-{[(3S,4R)-3-fluoro-1-methylpiperidin-4-yl]amino}-1-(2,2,2-trifluoroethyl)-1H-indol-2-yl)-1,2,4-oxadiazol-5-yl]methyl}-1H-pyrrole-3-carboxamide], “* (* = 0 μM ≤ SC150 < 0.1 μM)”; under `CN1CC[C@H](Nc2cccc3c2cc(-c2noc(CNC(=O)c4ccn(C)c4)n2)n3CC(F)(F)F)[C@H](F)C1` [Compound 182B, N-{[3-(4-{[(3R,4S)-3-fluoro-1-methylpiperidin-4-yl]amino}-1-(2,2,2-trifluoroethyl)-1H-indol-2-yl)-1,2,4-oxadiazol-5-yl]methyl}-1-methyl-1H-pyrrole-3-carboxamide], “* (* = 0 μM ≤ SC150 < 0.1 μM)”. Under `CN1CC[C@@H](Nc2cccc3c2cc(-c2noc(CNC(=O)[C@@H]4C[C@@H]4c4ccccc4)n2)n3CC(F)(F)F)[C@@H](F)C1` [Compound 207B, (1R,2S)-N-{[3-(4-{[(3S,4R)-3-fluoro-1-methylpiperidin-4-yl]amino}-1-(2,2,2-trifluoroethyl)-1H-indol-2-yl)-1,2,4-oxadiazol-5-yl]methyl}-2-phenylcyclopropane-1-carboxamide] stands “** (** = 0.1 μM ≤ SC150 < 0.5 μM)”; under `CN1CC[C@@H](Nc2cccc3c2cc(-c2cc(CNC(=O)c4cnn(C(C)(C)C)c4)on2)n3CC(F)(F)F)[C@@H](F)C1` [Compound 554B, 1-tert-butyl-N-{[3-(4-{[(3S,4R)-3-fluoro-1-methylpiperidin-4-yl]amino}-1-(2,2,2-trifluoroethyl)-1H-indol-2-yl)-1,2-oxazol-5-yl]methyl}-1H-pyrazole-4-carboxamide], “* (* = 0 μM ≤ SC150 < 0.1 μM)”; under `CN1CC[C@@H](Nc2cccc3c2cc(-c2noc(CNC(=O)c4cnc(N(C)C)s4)n2)n3CC(F)(F)F)[C@@H](F)C1` [Compound 432B, 2-(dimethylamino)-N-{[3-(4-{[(3S,4R)-3-fluoro-1-methylpiperidin-4-yl]amino}-1-(2,2,2-trifluoroethyl)-1H-indol-2-yl)-1,2,4-oxadiazol-5-yl]methyl)-1,3-thiazole-5-carboxamide], “* (* = 0 μM ≤ SC150 < 0.1 μM)”. Under `CN1CC[C@@H](Nc2cccc3c2cc(-c2ncc(CNC(=O)c4ccccc4)s2)n3CC(F)(F)F)[C@@H](F)C1` (racemic) [Compound 91B, (+/−)-N-{[2-(4-{[(3R,4S)-3-fluoro-1-methylpiperidin-4-yl]amino}-1-(2,2,2-trifluoroethyl)-1H-indol-2-yl)-1,3-thiazol-5-yl]methyl}benzamide] stands “* (* = 0 μM ≤ SC150 < 0.1 μM)”; under `CN1CC[C@@H](Nc2cccc3c2cc(-c2noc(CNC(=O)c4cnc(N5CCCC5)s4)n2)n3CC(F)(F)F)[C@@H](F)C1` [Compound 459B, N-{[3-(4-{[(3S,4R)-3-fluoro-1-methylpiperidin-4-yl]amino}-1-(2,2,2-trifluoroethyl)-1H-indol-2-yl)-1,2,4-oxadiazol-5-yl]methyl}-2-(pyrrolidin-1-yl)-1,3-thiazole-5-carboxamide], “* (* = 0 μM ≤ SC150 < 0.1 μM)”; under `CC(C)(C)n1ccc(C(=O)NCc2nc(-c3cc4c(N[C@H]5CCC(=O)NC5)cccc4n3CC(F)(F)F)no2)c1` [Compound 356B, 1-tert-butyl-N-{[3-(4-{[(3S)-6-oxopiperidin-3-yl]amino}-1-(2,2,2-trifluoroethyl)-1H-indol-2-yl)-1,2,4-oxadiazol-5-yl]methyl}-1H-pyrrole-3-carboxamide], “* (* = 0 μM ≤ SC150 < 0.1 μM)”. Turning to `COCC(C)n1ccc(C(=O)NCc2nc(-c3cc4c(N[C@@H]5CCN(C(C)(C)C)C[C@H]5F)cccc4n3CC(F)(F)F)no2)c1` (mixture of isomers) [Compound 358B, rac-N-{[3-(4-{1[(3R,4R)-1-tert-butyl-3-fluoropiperidin-4-yl]amino}-1-(2,2,2-trifluoroethyl)-1H-indol-2-yl)-1,2,4-oxadiazol-5-yl]methyl}-1-(1-methoxypropan-2-yl)-1H-pyrrole-3-carboxamide], the “Y220C SC150 (μM)” value is on record as “* (* = 0 μM ≤ SC150 < 0.1 μM)”. Under `COCC1(n2ccc(C(=O)NCc3nc(-c4cc5c(N[C@@H]6CCN(C)C[C@@H]6C)cccc5n4CC(F)(F)F)no3)c2)CC1` [Compound 504B, N-{[3-(4-{[(3S,4R)-1,3-dimethylpiperidin-4-yl]amino}-1-(2,2,2-trifluoroethyl)-1H-indol-2-yl)-1,2,4-oxadiazol-5-yl]methyl}-1-[1-(methoxymethyl)cyclopropyl]-1H-pyrrole-3-carboxamide] stands “* (* = 0 μM ≤ SC150 < 0.1 μM)”; under `COCC(C)(C)n1ccc(C(=O)NCc2nc(-c3cc4c(N[C@@H]5CN(C)CC[C@@H]5F)cccc4n3CC(F)(F)F)no2)c1` [Compound 417B, N-{[3-(4-{[(3R,4S)-4-fluoro-1-methylpiperidin-3-yl]amino}-1-(2,2,2-trifluoroethyl)-1H-indol-2-yl)-1,2,4-oxadiazol-5-yl]methyl}-1-(1-methoxy-2-methylpropan-2-yl)-1H-pyrrole-3-carboxamide], “* (* = 0 μM ≤ SC150 < 0.1 μM)”. Turning to `CN1CCC(Nc2cccc3c2cc(-c2noc(CNC(=O)c4ccc(C#N)cc4)n2)n3CC(F)(F)F)CC1` [Compound 151B, 4-cyano-N-[(3-{4-[(1-methylpiperidin-4-yl)amino]-1-(2,2,2-trifluoroethyl)-1H-indol-2-yl}-1,2,4-oxadiazol-5-yl)methyl]benzamide], the “Y220C SC150 (μM)” value is on record as “* (* = 0 μM ≤ SC150 < 0.1 μM)”. Next, `CN1CCC(Nc2cccc3c2cc(-c2nnc(CNc4cn[nH]c4)o2)n3CC(F)(F)F)CC1` [Compound 112B, N-(1-methylpiperidin-4-yl)-2-(5-{[(1H-pyrazol-4-yl)amino]methyl}-1,3,4-oxadiazol-2-yl)-1-(2,2,2-trifluoroethyl)-1H-indol-4-amine]: “*** (*** = 0.5 μM ≤ SC150 < 1 μM)”; `COCC(=O)NCc1nnc(-c2cc3c(NC4CCN(C)CC4)cccc3n2CC(F)(F)F)s1` [Compound 60B, 2-methoxy-N-[(5-{4-[(1-methylpiperidin-4-yl)amino]-1-(2,2,2-trifluoroethyl)-1H-indol-2-yl}-1,3,4-thiadiazol-2-yl)methyl]acetamide]: “** (** = 0.1 μM ≤ SC150 < 0.5 μM)”. Turning to `COC(C)Cn1ccc(C(=O)NCc2nc(-c3cc4c(N[C@@H]5CCN(C)C[C@@H]5F)cccc4n3CC(F)(F)F)no2)c1` (stereo partly drawn) [Compound 253B, N-{[3-(4-{[(3S,4R)-3-fluoro-1-methylpiperidin-4-yl]amino}-1-(2,2,2-trifluoroethyl)-1H-indol-2-yl)-1,2,4-oxadiazol-5-yl]methyl}-1-(2-methoxypropyl)-1H-pyrrole-3-carboxamide], the “Y220C SC150 (μM)” value is listed as “* (* = 0 μM ≤ SC150 < 0.1 μM)”. Next, `O=S1(=O)CCC(Nc2cccc3c2cc(-c2cnn(CCO)c2)n3CC(F)(F)F)CC1` [Compound 15B, 4-({2-[1-(2-hydroxyethyl)-1H-pyrazol-4-yl]-1-(2,2,2-trifluoroethyl)-1H-indol-4-yl}amino)-1λ^6-thiane-1,1-dione]: “**** (**** = 1 μM ≤ SC150 < 10 μM)”; `CN1CCC(Nc2cccc3c2cc(-c2noc(CNc4ccccc4)n2)n3CC(F)(F)F)CC1` [Compound 142B, N-(1-methylpiperidin-4-yl)-2-{5-[(phenylamino)methyl]-1,2,4-oxadiazol-3-yl}-1-(2,2,2-trifluoroethyl)-1H-indol-4-amine]: “* (* = 0 μM ≤ SC150 < 0.1 μM)”. Next, `CC(C)(C)n1ccc(C(=O)NCc2nc(-c3cc4c(N[C@H]5CC[C@@H](F)CC5)cccc4n3CC(F)(F)F)no2)c1` [Compound 343B, 1-tert-butyl-N-{[3-(4-{[(1s,4s)-4-fluorocyclohexyl]amino}-1-(2,2,2-trifluoroethyl)-1H-indol-2-yl)-1,2,4-oxadiazol-5-yl]methyl}-1H-pyrrole-3-carboxamide]: “* (* = 0 μM ≤ SC150 < 0.1 μM)”.

The record behind these values is patent publication US11807644B2 (PMV Pharmaceuticals, Inc., priority 2020, dated 2023).
